Assay results taken from patent US11357850B2, “Methods for treating breast cancer using INOS-inhibitory compositions” (The Methodist Hospital, priority 2014, dated 2022).
Like-named read-outs stand apart in the source and are kept apart here.

Columns and labels:
[1] = test system: unresectable stage III or IV advanced melanoma; conditions: cited from earlier work
SUM159 = experiment: Cell proliferation assay (WST-1), calcium channel antagonists; assay type: cell-based, human; conditions: 0, 1, 5, and 10 μM for 72 hrs
Procedure: (§1) Cell Proliferation Assay In Vitro. Mesenchymal-like, TNBC cell lines, MDA-MB-231 and SUM159, were grown in DMEM supplemented with 10% fetal bovine serum and 1% antibiotic-antimycotic. Stock solutions of various calcium-channel antagonists (amlodipine, nicardipine, nifedipine, felodipine, isradipine, diltiazem, verapamil, lacidipine, nisoldipine, nitrendipine, nivaldipine, azelnidipine, barnidipine, benidipine, efonidipine, lercanidipine, pranidipine, and manidipine) were prepared in DMSO. Effects on cell proliferation were assayed with the WST-1 method. Briefly, 1,000 (SUM159) and 2,000 (MDA-MB-231) cells/well were plated in a 96-well plate and treated with different concentrations (0, 1, 5, and 10 μM) of calcium channel antagonists for 72 hrs. Proliferation rate was determined by adding premixed WST-1 reagent. After incubation at 37° C. for three hrs, absorbance was read at 450 nm (reference wavelength 690 nm). Results were normalized against vehicle (100%). The antagonists were considered active when proliferation was decreased in ≥30%.

MDA-MB-231 = experiment: as above; assay type: cell-based, human; conditions: 0, 1, 5, and 10 μM for 72 hrs
Procedure: as §1

MDA-MB-231 xenografts = MDA-MB-231 xenografts treated with L-NMMA, docetaxel, combination; assay type: in vivo, mice
Procedure: (§2) Animal Studies. Female SCID Beige mice (4-5 weeks old) (Harlan Laboratories, Houston, Tex., USA) were housed under standard laboratory conditions (22° C.; 12 hrs/12 hrs light/dark cycle and free access to food and water). Either MDA-MB-231 or SUM159 cells (3×10^6) were injected in the right mammary fat pad. Once the tumors reached 150-200 mm^3, the mice were randomized into different groups as follows (n=10/group): 1) Vehicle (saline, i.p.), 2) L-NMMA (either 80 mg/kg or 200 mg/kg, i.p., daily), 3) Docetaxel (20 mg/kg), 4) Combo (L-NMMA and docetaxel).
(§3) Self-renewal and tumor-initiating capacity was determined by MSFE and limiting-dilution assays, respectively, in single cells isolated from tumor tissue. Briefly, breast tumor tissue was minced, digested in DMEM:F12 medium with 100 U/mL of collagenase type 3 (Worthington, Lakewood, N.J., USA) and 0.8 U/mL of dispase (Gibco, Carlsbad, Calif., USA) at 37° C. for 45 min. MSFE was assayed in isolated single cells as stated above. The limiting dilution assay (LDA) was performed injecting either […] isolated cells from tumor tissue in the mammary fat pad of SCID Beige mice (n=12/group). Flow cytometric analysis of CD44^+/CD24^−/low cell population was assayed using published methods.
The role of L-NMMA was then investigated, either alone or in combination with docetaxel in a different TNBC mouse model. Docetaxel (20 mg/kg at days 0 and 21) and 200 mg/kg L-NMMA (daily) were given to MDA-MB-231 xenograft-bearing mice for 31 days.

SUM159 xenografts = SUM159 xenografts treated with L-NMMA, docetaxel, combination; assay type: in vivo, mice
Procedure: as §2, §3
To answer this question, daily injections of 80 mg/kg L-NMMA were first given to SUM159 xenograft-bearing mice alone or in combination with docetaxel (20 mg/kg). […] The inventor next analyzed the impact on CSC self-renewal by the MSFE assay.

MCF10A = experiment: Western blot of PERK/eIF2α/ATF4/ATF3 axis with recombinant TGFβ1; assay type: cell-based; conditions: 10 ng/mL for 24 hrs
Description: FIG. 3A, FIG. 3B, FIG. 3C, FIG. 3D, FIG. 3E, FIG. 3F, FIG. 3G, FIG. 311, FIG. 3I, and FIG. 3J show iNOS knockdown impairs tumorigenicity and EMT by a dual impact on HIF1α and endoplasmic reticulum (ER) stress/TGFβ/AFT4/ATF3 crosstalk. Proliferation (FIG. 3A), migration (FIG. 3B), and self-renewal capacity (primary and secondary mammospheres) (FIG. 3C) in MDA-MB-231 cells transfected with two different NOS2-directed shRNAs (shRNA1, shRNA2) compared with empty vector (shRNA-EV). […] Selective iNOS inhibition reduced hypoxia (HIF1α), ER stress markers (IRE1α, ATF4) (FIG. 3F), phospho-Smad2/3, Smad2/3 and mature TGFβ protein levels in MDA-MB-231 and SUM159 cells (FIG. 3G). FIG. 3H: Recombinant TGFβ1 (10 ng/mL for 24 hrs) activates the PERK/eIF2α/ATF4/ATF3 axis in MCF10A. […] FIG. 3J: Selective iNOS inhibition is postulated to impair EMT and tumor cell migration by an impact on HIF1α, ER stress (IRE1α/XBP1) and the crosstalk between ATF4, ATF3 and TGFβ. Results were normalized to empty vector. Data are presented as mean±SEM. ****p<0.0001, ***p<0.001, **p<0.01. One-way ANOVA and Bonferroni's post-hoc test;
Western Blot. Cells were cultured at a density of 2.5×10^5 cells/well in 6-well plates with or without iNOS inhibitors for 96 hrs. Cells were resuspended in 1× lysis buffer (Cell Signaling Technology, Inc.) and 1× protease/phosphatase inhibitor cocktail (Thermo Scientific). […]

[2] = test system: advanced, PD-L1-positive TNBC; conditions: cited from earlier work
[3] = test system: metastatic PD-L1-positive NSCLC; conditions: cited from earlier work
advanced melanoma = conditions: 2 mg/kg, 173 patients; cited from earlier work
[4] = test system: recurrent or metastatic head and neck squamous cell carcinoma; conditions: cited from earlier work
[5] = test system: ipilimumab-refractory metastatic melanoma; conditions: cited from earlier work

ipilimumab: comparator in the KEYNOTE-006 melanoma study
estimated 6-month PFS rate ([1]; ipilimumab 3 mg/kg Q3W, four cycles): 26.5% | estimated 12-month survival rate ([1]; ipilimumab 3 mg/kg Q3W): 58.2% | rate of Grade 3-5 treatment-related AEs ([1]; ipilimumab 3 mg/kg Q3W): 19.9% | response rate ([1]; ipilimumab 3 mg/kg Q3W): 11.9%

COC(=O)C1=C(C#N)NC(C)=C(C(=O)OC(C)C)C1c1cccc([N+](=O)[O-])c1 (centres unmarked) [nivaldipine]
proliferation (SUM159): dose-dependent decrease in proliferation | proliferation (MDA-MB-231): dose-dependent decrease in proliferation

CC(=O)O[C@@]12CO[C@@H]1C[C@H](O)[C@@]1(C)C(=O)[C@H](O)C3=C(C)[C@@H](OC(=O)[C@H](O)[C@@H](NC(=O)OC(C)(C)C)c4ccccc4)C[C@@](O)([C@@H](OC(=O)c4ccccc4)[C@H]21)C3(C)C [docetaxel]
limiting dilution assay, tumors (MDA-MB-231 xenografts; 5 weeks with 5×10^4 cells, vehicle 12/12): 8/12 | limiting dilution assay, tumors (MDA-MB-231 xenografts; after six weeks, vehicle 6/12): 8/12 | apoptosis levels (cleaved caspase-3) (MDA-MB-231 xenografts; relative to the combination group): higher apoptosis levels | limiting dilution assay, tumors (SUM159 xenografts; 7 weeks with 5×10^4 cells, vehicle 12/12): 12/12 | CD44+/CD24−/low population (flow cytometry) (SUM159 xenografts; mouse, in vivo): slight increase | primary and secondary MSFE of single tumor cells isolated from tumor tissue (SUM159 xenografts; mouse, in vivo): dramatic increase | limiting dilution assay, tumors (SUM159 xenografts; week nine with 2×10^4 cells, vehicle 7/12): 3/12

CCOC(=O)C1=C(C)NC(C)=C(C(=O)OCC)C1c1ccccc1/C=C/C(=O)OC(C)(C)C [lacidipine]
proliferation (SUM159): dose-dependent decrease in proliferation | proliferation (MDA-MB-231): dose-dependent decrease in proliferation

recombinant TGFβ1: recombinant human TGF-β1 (CHO cell derived)
PERK/eIF2α/ATF4/ATF3 axis (MCF10A): induced the PERK/eIF2α/ATF4/ATF3 axis

CC1=C(C(=O)OC(C)C)C(c2cccc([N+](=O)[O-])c2)C(C(=O)OC2CN(C(c3ccccc3)c3ccccc3)C2)=C(N)N1 (centres unmarked) [azelnidipine]
proliferation (SUM159): dose-dependent decrease in proliferation | proliferation (MDA-MB-231): dose-dependent decrease in proliferation

pembrolizumab: humanized monoclonal antibody of the IgG4/κ isotype blocking the interaction between PD-1 and its ligands
overall response rate ([2]; 10 mg/kg Q2W, 27 evaluable patients): 18.5% | PR, patients ([2]; 10 mg/kg Q2W): 14.8% | complete response (CR), patients ([2]; 10 mg/kg Q2W): 3.7% | progressive disease (PD), patients ([2]; 10 mg/kg Q2W): 48.1% | Grade ≥3 AEs, patients ([2]; five patients): 15.6% | median DoR ([2]; in vivo): not yet reached | median time to response ([2]; range: 7.3-32.4 weeks): 17.9 weeks | patients having a DoR of ≥6 months ([3]; 11 patients): 44% | responses ongoing at the time of the analysis, patients ([3]; 21 of 25): 85% | objective response rate (ORR) ([3]; 61 patients with PD-L1 strongly positive tumors, all partial responses): 41% | overall response rate (advanced melanoma): 24% | estimated 6-month PFS rate ([1]; pembrolizumab 10 mg/kg Q2W): 47.3% | estimated 6-month PFS rate ([1]; pembrolizumab 10 mg/kg Q3W): 46.4% | estimated 12-month survival rate ([1]; pembrolizumab Q2W): 74.1% | rate of Grade 3-5 treatment-related AEs ([1]; pembrolizumab Q2W): 13.3% | response rate ([1]; pembrolizumab Q2W): 33.7% | estimated 12-month survival rate ([1]; pembrolizumab Q3W): 68.4% | rate of Grade 3-5 treatment-related AEs ([1]; pembrolizumab Q3W): 10.1% | response rate ([1]; pembrolizumab Q3W): 32.9% | ORR ([4]; 10 mg/kg Q2W or 200 mg Q3W, n=174): 16% | responding patients with responses of 6 months or longer ([4]; 23 of 28): 82% | SAEs, patients ([4]; in vivo): 45% | dyspnea, patients ([4]; in vivo): 20% | fatigue, patients ([4]; in vivo): 46% | 6-month PFS rate ([5]; 2 mg/kg Q3W): 34% | Grade 3-4 treatment-related fatigue, patients ([5]; 2 mg/kg, 178 patients): 1% | Grade 3-4 generalized edema and myalgia (each), patients ([5]; 2 mg/kg): 1% | Grade 3-4 treatment-related adverse events, patients ([5]; 2 mg/kg): 11% | 6-month PFS rate ([5]; 10 mg/kg Q3W): 38% | Grade 3-4 treatment-related fatigue, patients ([5]; 10 mg/kg, 179 patients): < 1% | Grade 3-4 hypopituitarism, colitis, diarrhea, decreased appetite, hyponatremia, and pneumonitis (each), patients ([5]; 10 mg/kg): 1% | Grade 3-4 treatment-related adverse events, patients ([5]; 10 mg/kg): 14%
